According to patent US20210338558A1, “USE OF COLLAGEN BINDING DOMAINS TO DELIVER PRODUCTS TO SKIN” (Fabius Biotechnology, priority 2018, published 2021):
Each block holds one substance with its values, some of them ahead of it. Where no end group is shown, it is not given here.

Key:
[1] = test system: native collagen; assay: binding of growth factors carrying the collagen binding decapeptide to collagen
Source text: (§1) Studies with targeted peptides used the decapeptide sequence: Trp-Arg-Glu-Pro-Ser-Phe-Met-Ala-Leu-Ser (WREPSFMALS) (SEQ ID NO: 1). It was linked to either TGF-β or BMP-3 at the C-terminus of the corresponding growth factors.
Polypeptide growth factors, of the TGF-β family, and others, were constructed to contain, at the C-terminal end, a decapeptide with high affinity for collagen (Andrades, Nimni et al. 1996; Tuan, Cheung et al. 1996; Andrades, Han et al. 1999; Hall, Han et al. 2001; Han, Perelman et al. 2002; Romijn, Westein et al. 2003). This was intended to provide concentration of the growth factors where needed for maximum efficacy. In compositions and methods according to the present invention, this effect can be used for delivery of the skin care agent or cosmeceutical to the skin.
This is compared to the behavior of TGF-β without the collagen binding domain, which has poor affinity for collagen.

[2] = biological activity of the covalently linked growth factors; details: growth factor linked at its C-terminus to decapeptide WREPSFMALS
Source text: as §1

[3] = test system: collagen; details: by binding competition, on a molar basis, relative to intact VWF; cited from earlier work

- binding affinity towards native collagen ([1]; growth factor linked at its C-terminus to decapeptide WREPSFMALS): strong binding affinity
Substance: TGF-β with a collagen binding domain: TGF-β linked at the C-terminus to the decapeptide WREPSFMALS; genetically engineered fusion protein (FIG. 3)
- dissociation of binding to collagen ([1]; FIG. 4, urea): requires a high concentration of urea for dissociation
- biological activities retained after linkage [2]: retained significant biological activities

- affinity for collagen ([1]; FIG. 4): poor affinity
Substance: TGF-β without the collagen binding domain: TGF-β lacking the collagen binding domain, comparator in FIG. 4 [reference compound]

Substance: WREPSFCALS [SEQ ID NO: 2]
- binds more efficiently to collagen than the intact VWF [3]: 20 times

Substance: WREPSFMALS [SEQ ID NO: 1]
- binds more efficiently to collagen than the intact VWF [3]: 20 times
